Calls of active or inactive are those of the source.
Tests used:
Format in all cases: functional
[1] = molecular target: Dual specificity protein kinase CLK2 (Homo sapiens, UniProt P49760)
[2] = molecular target: Mitogen-activated protein kinase 8 (Homo sapiens, UniProt P45983);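 also: value comes from one member of a kinome-wide kinase profiling panel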
[3] = molecular target: Activated CDC42 kinase 1 (Homo sapiens, UniProt Q07912); assay: Navigating the Kinome. Panel member name: ACK1
[4] = molecular target: Rho-associated protein kinase 1 (Homo sapiens, UniProt Q13464);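 also: measured within a broad kinome-wide panel profiling many kinases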
[5] = molecular target: Tyrosine-protein kinase Fyn (Homo sapiens, UniProt P06241)
[6] = molecular target: Calcium/calmodulin-dependent protein kinase type II subunit alpha (Homo sapiens, UniProt Q9UQM7); assay: Navigating the Kinome. Panel member name: CAMK2A
[7] = molecular target: Mitogen-activated protein kinase 14 (Homo sapiens, UniProt Q16539);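 also: part of a kinome-wide panel, MAPK14 entry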
[8] = molecular target: T1, Protein RecA (Mycobacterium tuberculosis, UniProt P9WHJ3); assay: Fluorescence Cell-Free Homogeneous Dose Retest to Identify Inhibitors of RecA-Intein Splicing Activity. [Related pubchem assays (depositor defined):AID2097, AID2223, AID489010, AID492950]
T1 sequence (P9WHJ3 whole entry): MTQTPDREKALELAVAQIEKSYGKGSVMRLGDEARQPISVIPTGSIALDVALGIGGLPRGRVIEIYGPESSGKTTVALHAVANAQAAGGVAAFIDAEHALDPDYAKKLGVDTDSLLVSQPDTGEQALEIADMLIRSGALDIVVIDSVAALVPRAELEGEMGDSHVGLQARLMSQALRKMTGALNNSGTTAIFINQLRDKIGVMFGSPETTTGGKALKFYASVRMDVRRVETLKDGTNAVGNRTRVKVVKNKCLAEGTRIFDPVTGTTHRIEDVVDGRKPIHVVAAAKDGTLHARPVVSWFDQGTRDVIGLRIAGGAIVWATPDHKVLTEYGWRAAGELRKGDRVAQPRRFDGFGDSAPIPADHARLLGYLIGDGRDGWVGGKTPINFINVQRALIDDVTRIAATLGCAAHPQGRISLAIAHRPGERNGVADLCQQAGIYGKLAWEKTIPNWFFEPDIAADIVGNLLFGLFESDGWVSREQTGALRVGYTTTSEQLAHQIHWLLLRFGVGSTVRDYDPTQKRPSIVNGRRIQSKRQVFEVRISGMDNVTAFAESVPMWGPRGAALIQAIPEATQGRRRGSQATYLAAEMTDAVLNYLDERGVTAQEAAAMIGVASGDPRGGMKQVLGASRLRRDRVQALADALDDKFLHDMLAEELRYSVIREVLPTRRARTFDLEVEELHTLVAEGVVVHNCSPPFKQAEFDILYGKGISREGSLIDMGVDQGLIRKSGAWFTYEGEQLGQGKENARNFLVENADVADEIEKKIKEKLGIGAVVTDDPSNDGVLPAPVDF

[9] = molecular target: SUMO-activating enzyme (Homo sapiens, UniProt Q9UBT2); assay: SUMOylation inhibitor hit validation, confirmation, SUMOylation inhibitor project, biochemical, AlphaScreen (AID 2018)
[10] = molecular target: T2, Caspase-3 (Homo sapiens, UniProt P42574); assay: SAR Analysis of small molecule inhibitors of Sentrin-specific proteases (SENPs) using a Caspase-3 Selectivity assay. [Related pubchem assays (depositor defined):AID2540, AID2599, AID434973, AID489001]
T2 sequence (P42574 whole entry): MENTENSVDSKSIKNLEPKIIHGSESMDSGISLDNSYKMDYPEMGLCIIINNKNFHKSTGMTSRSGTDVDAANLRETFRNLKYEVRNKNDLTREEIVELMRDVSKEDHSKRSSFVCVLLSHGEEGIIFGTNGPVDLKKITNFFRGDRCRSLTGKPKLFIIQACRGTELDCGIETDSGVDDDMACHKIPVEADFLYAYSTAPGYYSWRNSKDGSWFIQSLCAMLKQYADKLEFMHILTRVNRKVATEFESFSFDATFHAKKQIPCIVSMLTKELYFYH

[11] = molecular target: T3, Sentrin-specific protease 6 (Homo sapiens, UniProt Q9GZR1); assay: SAR Analysis of small molecule inhibitors of Sentrin-specific protease 6 (SENP6) using a Luminescent assay. [Related pubchem assays (depositor defined):AID2582, AID2599]
T3 sequence (Q9GZR1 whole entry): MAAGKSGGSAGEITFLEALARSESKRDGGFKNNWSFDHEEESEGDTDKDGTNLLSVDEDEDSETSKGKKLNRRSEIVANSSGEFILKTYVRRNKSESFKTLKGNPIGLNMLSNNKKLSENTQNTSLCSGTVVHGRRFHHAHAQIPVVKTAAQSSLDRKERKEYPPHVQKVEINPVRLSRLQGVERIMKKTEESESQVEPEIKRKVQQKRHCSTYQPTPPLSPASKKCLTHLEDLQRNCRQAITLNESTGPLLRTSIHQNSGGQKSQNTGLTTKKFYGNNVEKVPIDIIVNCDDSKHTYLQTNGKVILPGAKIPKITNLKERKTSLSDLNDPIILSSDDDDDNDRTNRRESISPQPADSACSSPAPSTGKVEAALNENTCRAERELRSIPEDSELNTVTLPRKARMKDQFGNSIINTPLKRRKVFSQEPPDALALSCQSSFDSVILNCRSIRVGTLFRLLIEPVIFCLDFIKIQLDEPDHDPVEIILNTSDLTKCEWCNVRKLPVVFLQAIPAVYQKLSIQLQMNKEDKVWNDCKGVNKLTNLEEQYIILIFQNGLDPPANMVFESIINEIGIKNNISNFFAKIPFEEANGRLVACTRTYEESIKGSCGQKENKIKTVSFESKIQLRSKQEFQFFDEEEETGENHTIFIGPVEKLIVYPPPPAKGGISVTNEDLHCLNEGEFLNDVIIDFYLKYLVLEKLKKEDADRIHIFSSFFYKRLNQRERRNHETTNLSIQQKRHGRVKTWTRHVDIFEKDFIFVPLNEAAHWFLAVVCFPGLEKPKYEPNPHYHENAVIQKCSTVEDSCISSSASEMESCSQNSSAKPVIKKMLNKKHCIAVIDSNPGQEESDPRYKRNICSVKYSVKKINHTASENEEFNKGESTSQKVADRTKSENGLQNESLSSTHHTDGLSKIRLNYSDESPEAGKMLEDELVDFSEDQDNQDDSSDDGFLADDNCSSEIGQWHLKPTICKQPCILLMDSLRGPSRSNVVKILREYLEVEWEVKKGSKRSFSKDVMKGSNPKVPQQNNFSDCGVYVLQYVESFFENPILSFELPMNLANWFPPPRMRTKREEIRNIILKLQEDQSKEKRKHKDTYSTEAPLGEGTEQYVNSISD

Tyrosine-protein kinase Fyn, sequence (P06241 whole entry): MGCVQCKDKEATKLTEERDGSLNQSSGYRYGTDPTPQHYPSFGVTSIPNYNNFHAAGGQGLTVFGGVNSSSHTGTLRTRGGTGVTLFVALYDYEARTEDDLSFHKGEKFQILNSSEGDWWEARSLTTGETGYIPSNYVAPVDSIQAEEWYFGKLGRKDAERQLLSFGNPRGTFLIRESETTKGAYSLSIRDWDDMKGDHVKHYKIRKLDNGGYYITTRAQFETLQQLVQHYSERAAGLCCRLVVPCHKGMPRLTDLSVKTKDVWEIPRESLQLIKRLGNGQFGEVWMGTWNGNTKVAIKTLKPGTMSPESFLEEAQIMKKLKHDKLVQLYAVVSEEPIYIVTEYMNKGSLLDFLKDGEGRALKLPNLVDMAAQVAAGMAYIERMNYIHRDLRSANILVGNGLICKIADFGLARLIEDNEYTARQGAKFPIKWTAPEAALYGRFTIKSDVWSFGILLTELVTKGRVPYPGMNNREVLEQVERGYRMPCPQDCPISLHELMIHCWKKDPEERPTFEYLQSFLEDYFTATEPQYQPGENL
Dual specificity protein kinase CLK2, sequence (P49760 whole entry): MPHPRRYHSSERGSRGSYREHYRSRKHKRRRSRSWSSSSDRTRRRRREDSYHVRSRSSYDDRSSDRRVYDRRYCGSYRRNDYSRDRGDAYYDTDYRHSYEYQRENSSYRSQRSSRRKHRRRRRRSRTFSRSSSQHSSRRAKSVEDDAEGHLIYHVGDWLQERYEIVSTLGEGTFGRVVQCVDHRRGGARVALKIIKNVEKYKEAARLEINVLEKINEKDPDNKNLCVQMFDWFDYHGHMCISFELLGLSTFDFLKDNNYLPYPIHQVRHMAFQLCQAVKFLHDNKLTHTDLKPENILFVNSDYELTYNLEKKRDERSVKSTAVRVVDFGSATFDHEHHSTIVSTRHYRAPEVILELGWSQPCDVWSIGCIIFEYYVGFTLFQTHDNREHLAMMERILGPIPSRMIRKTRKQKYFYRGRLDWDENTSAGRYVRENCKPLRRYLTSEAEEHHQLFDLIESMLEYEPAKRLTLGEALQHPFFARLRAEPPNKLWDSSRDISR
Activated CDC42 kinase 1, sequence (Q07912 whole entry): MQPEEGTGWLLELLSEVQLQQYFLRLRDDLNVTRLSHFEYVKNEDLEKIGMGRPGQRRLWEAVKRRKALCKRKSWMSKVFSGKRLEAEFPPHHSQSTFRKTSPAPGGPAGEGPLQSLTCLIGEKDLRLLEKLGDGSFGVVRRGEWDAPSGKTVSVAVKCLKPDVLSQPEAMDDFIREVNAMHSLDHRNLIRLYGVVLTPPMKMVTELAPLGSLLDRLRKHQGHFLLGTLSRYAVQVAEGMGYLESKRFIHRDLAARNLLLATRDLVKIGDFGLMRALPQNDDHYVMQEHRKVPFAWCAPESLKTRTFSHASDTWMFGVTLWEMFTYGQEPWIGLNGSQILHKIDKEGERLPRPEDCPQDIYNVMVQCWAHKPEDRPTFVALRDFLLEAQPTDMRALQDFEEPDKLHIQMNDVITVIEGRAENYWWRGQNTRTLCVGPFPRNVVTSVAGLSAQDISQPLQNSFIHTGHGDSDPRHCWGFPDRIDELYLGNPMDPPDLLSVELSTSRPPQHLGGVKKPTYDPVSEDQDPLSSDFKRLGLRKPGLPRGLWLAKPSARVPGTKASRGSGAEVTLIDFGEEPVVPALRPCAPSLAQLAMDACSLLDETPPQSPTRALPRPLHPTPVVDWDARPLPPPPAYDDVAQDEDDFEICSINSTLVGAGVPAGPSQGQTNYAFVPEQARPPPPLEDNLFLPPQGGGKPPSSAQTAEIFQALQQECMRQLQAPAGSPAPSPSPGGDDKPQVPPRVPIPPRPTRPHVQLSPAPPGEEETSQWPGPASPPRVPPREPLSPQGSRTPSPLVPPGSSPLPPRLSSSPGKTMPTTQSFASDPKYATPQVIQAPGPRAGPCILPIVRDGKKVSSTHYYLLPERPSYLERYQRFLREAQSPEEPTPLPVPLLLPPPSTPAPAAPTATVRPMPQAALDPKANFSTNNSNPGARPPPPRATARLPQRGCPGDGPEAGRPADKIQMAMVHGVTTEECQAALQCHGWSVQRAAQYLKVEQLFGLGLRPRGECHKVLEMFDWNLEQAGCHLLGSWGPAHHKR
Calcium/calmodulin-dependent protein kinase type II subunit alpha, sequence (Q9UQM7 whole entry): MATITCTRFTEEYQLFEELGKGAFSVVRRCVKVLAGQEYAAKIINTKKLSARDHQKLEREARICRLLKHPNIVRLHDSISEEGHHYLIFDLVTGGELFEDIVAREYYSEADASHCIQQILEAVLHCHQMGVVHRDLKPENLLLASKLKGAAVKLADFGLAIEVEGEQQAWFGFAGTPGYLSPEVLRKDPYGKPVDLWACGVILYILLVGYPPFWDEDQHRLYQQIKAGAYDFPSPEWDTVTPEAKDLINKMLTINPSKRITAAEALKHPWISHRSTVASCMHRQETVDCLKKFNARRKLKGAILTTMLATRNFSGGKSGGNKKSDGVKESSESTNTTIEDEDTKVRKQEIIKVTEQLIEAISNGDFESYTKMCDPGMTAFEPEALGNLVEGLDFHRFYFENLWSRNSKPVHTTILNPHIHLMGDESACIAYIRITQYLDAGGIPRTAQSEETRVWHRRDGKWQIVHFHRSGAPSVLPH
Rho-associated protein kinase 1, sequence (Q13464 whole entry): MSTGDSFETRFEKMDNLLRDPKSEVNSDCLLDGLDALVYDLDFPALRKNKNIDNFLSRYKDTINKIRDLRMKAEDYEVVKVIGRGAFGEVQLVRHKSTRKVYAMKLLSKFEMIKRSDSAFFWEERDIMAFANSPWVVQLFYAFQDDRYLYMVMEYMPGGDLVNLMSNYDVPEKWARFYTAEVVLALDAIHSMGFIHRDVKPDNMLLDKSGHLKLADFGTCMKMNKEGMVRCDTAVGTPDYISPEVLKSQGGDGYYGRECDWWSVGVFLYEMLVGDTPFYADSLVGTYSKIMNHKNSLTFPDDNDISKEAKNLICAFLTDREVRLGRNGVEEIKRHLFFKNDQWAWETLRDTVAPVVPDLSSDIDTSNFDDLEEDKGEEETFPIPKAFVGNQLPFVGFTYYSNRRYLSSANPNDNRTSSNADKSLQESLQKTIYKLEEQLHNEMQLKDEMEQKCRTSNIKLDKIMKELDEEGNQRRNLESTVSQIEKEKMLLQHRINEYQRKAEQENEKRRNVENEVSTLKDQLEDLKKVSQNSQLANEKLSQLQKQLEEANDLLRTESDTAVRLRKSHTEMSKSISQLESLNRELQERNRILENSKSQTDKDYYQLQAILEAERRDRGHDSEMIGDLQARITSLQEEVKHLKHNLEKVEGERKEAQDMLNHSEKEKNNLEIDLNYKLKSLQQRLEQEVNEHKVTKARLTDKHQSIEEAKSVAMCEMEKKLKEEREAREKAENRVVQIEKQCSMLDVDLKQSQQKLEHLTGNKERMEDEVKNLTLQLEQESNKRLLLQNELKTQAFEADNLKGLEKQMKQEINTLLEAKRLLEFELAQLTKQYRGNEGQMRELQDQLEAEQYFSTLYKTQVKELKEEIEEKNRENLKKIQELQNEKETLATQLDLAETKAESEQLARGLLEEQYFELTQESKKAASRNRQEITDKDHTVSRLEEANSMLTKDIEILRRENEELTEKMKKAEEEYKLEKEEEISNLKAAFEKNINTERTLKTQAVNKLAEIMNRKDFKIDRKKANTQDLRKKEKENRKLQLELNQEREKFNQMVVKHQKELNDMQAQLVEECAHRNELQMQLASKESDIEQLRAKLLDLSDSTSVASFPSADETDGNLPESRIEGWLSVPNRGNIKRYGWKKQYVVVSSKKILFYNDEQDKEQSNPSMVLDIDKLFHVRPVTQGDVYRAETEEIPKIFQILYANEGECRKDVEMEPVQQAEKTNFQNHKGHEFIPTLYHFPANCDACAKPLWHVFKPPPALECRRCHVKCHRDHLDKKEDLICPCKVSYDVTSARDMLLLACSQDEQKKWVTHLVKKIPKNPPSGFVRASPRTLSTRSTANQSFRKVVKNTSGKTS
Mitogen-activated protein kinase 8, sequence (P45983 whole entry): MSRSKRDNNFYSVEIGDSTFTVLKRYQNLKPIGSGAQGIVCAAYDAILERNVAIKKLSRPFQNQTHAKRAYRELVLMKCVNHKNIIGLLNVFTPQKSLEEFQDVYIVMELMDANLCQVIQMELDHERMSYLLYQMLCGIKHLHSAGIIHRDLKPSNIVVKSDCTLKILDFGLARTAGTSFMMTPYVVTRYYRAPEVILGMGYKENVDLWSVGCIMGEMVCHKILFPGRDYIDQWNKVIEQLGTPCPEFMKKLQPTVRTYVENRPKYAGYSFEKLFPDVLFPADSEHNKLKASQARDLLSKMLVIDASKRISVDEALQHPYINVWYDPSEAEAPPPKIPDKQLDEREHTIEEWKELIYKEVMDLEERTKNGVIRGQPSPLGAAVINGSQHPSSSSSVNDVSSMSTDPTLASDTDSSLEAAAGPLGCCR
Mitogen-activated protein kinase 14, sequence (Q16539 whole entry): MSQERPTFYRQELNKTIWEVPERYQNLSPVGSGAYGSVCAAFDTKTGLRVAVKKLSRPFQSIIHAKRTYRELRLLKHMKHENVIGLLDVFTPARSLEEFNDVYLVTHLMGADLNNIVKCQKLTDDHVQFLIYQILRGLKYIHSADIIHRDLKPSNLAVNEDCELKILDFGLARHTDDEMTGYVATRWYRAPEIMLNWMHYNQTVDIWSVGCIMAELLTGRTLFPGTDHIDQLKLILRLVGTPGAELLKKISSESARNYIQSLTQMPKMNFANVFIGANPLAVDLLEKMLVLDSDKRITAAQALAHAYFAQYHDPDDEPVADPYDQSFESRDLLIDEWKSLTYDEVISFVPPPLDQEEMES

**Q.** What does the source list for `NC(COc1cncc(-c2ccc3c(c2)C(=Cc2ccc[nH]2)C(=O)N3)c1)Cc1ccccc1` (configuration not stated)?
**A.** Ki [1]: 0.000794 µM (active); Ki [2]: 1.26 µM (active); Ki [3]: 1.58 µM (active); Ki [4]: 0.00398 µM (active); Ki [5]: 0.398 µM (active); Ki [6]: 0.0631 µM (active); Ki [7]: 0.631 µM (active)

**Q.** `O=C(NC1=C(Nc2ccc(F)cc2)C(=O)c2ccccc2C1=O)c1ccc(Cl)cc1` was tested. Which EC50 [8] did it give?
**A.** The EC50 was 25.9 µM (inconclusive).

**Q.** With `O=C1Nc2cc(-c3ccc(O)cc3)ccc2C1=Cc1ccc[nH]1` as the molecule, how does the Ki [1] read?
**A.** Its Ki is > 3.98 µM (inactive).

**Q.** And the Ki [2]?
**A.** Its Ki is > 5.01 µM (inactive).

**Q.** And the Ki [3]?
**A.** Its Ki is > 3.98 µM (inactive).

**Q.** And the Ki [4]?
**A.** Its Ki is > 3.98 µM (inactive).

**Q.** What about the Ki [5] of the same molecule?
**A.** The Ki was > 6.31 µM (inactive).

**Q.** And the Ki [6]?
**A.** Its Ki is 2.51 µM (active).

**Q.** And the Ki [7]?
**A.** Its Ki is 2.51 µM (active).

**Q.** How did the IC50 [9] turn out when `CN(C)c1cc(N/N=C\c2ccccc2)nc(N(C)C)n1` was run?
**A.** Its IC50 is 1.6 µM (active).

**Q.** And the IC50 [10]?
**A.** The IC50 was 79.3 µM (active).

**Q.** And the IC50 [11]?
**A.** Its IC50 is 11.3 µM (active).

**Q.** `COc1cc2cc(NC(C)=O)cc(NCc3ccccc3)c2cc1OC` was tested. Which IC50 [10] did it give?
**A.** The IC50 was > 99 µM (inactive).

**Q.** What about the IC50 [11] of the same molecule?
**A.** Its IC50 is 40.4 µM (active).

**Q.** With `Oc1nc(Nc2ccc(F)cc2)cc2ccccc12` as the molecule, how does the IC50 [9] read?
**A.** Its IC50 is 1.12 µM (active).

**Q.** And the EC50 [8]?
**A.** Its EC50 is 1.21 µM (active).

— ChEMBL document CHEMBL1201862, “PubChem BioAssay data set” (2004)
